This passage reports IC50 results from patent US10669242B2 (priority 2016, dated 2020).

pIC50: −log10 of the molar value. Where only a bound is given, the exact number is not on record here.

In the test the target is T1, recombinant glucosyltransferase domain of C. difficile Toxin B/TcdB (Clostridioides difficile, UniProt P18177).
T1 construct: 6-His (C); purchased R&D Systems 6246-GT
T1 sequence (P18177 1-543): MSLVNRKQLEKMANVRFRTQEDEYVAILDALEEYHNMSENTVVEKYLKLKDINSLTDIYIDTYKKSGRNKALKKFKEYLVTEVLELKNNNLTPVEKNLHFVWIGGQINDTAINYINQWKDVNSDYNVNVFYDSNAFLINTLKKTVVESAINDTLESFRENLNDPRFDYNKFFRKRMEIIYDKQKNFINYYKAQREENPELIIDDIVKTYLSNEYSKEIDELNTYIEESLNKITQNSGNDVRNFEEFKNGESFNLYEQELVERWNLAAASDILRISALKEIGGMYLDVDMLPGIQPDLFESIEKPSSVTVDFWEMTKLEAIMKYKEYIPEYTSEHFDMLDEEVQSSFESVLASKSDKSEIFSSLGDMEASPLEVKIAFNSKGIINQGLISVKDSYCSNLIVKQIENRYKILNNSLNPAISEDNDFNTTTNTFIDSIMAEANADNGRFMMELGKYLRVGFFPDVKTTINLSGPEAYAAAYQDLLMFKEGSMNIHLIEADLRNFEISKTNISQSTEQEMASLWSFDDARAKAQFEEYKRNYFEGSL
The test is described as follows: biochemical.
Take `O=C(Nc1ncc(C(F)(F)F)cn1)c1ccc(CN2C(=O)c3ccc(Cl)cc3NC(=O)[C@H]2Cc2ccccn2)cc1` [Example 49a, (R)-4-((8-Chloro-2,5-dioxo-3-(pyridin-2-ylmethyl)-2,3-dihydro-1H-benzo[e][1,4]diazepin-4(5H)-yl)methyl)-N-(5-(trifluoromethyl)pyrimidin-2-yl)benzamide]: the pIC50 (commonly −log10 of the IC50, conventionally taken in molar units) is over 7.00. Regarding `Cc1ccc(NC(=O)c2ccc(CN3C(=O)c4ccc(NS(C)(=O)=O)cc4NC(=O)[C@H]3C)cc2)nc1` [Example 39a, (R)-4-((3-Methyl-8-(methylsulfonamido)-2,5-dioxo-2,3-dihydro-1H-benzo[e][1,4]diazepin-4(5H)-yl)methyl)-N-(5-methylpyridin-2-yl)benzamide], the pIC50 is 4.46 to 5.00. Under `Cc1cnc(NC(=O)c2ccc(CN3C(=O)c4ccc(Cl)cc4NC(=O)[C@H]3Cc3ccccn3)cc2C)nc1` [Example 5ag, (R)-4-((8-chloro-2,5-dioxo-3-(pyridin-2-ylmethyl)-2,3-dihydro-1H-benzo[e][1,4]diazepin-4(5H)-yl)methyl)-2-methyl-N-(5-methylpyrimidin-2-yl)benzamide] stands over 7.00; under `O=C(O)c1ccc(CN2C(=O)c3ccc(Cl)cc3NC(=O)[C@H]2CCc2ccccc2)cc1` [Example 3c], 4.46 to 5.00. As to `O=C1Nc2cc(Cl)ccc2C(=O)N(Cc2ccc(C(=O)n3ccc4cccnc43)c(Cl)c2)[C@@H]1Cc1ccccn1` [Example 4ab, (R)-8-chloro-4-(3-chloro-4-(1H-pyrrolo[2,3-b]pyridine-1-carbonyl)benzyl)-3-(pyridin-2-ylmethyl)-3,4-dihydro-1H-benzo[e][1,4]diazepine-2,5-dione], the pIC50 is over 7.00.

Regarding `Cc1ccc(NC(=O)c2ccc(CN3C(=O)c4ccc(Cl)cc4NC(=O)[C@H]3Cc3cccnc3)cc2)nc1` [Example 4n, (R)-4-((8-chloro-2,5-dioxo-3-(pyridin-3-ylmethyl)-2,3-dihydro-1H-benzo[e][1,4]diazepin-4(5H)-yl)methyl)-N-(5-methylpyridin-2-yl)benzamide], the pIC50 is over 7.00.

On to `C[C@@H]1C(=O)Nc2cc(Cl)ccc2C(=O)N1Cc1ccc(C(=O)Nc2cc3ccccc3cn2)cc1` [Example 4bb, (R)-4-((8-chloro-3-methyl-2,5-dioxo-2,3-dihydro-1H-benzo[e][1,4]diazepin-4(5H)-yl)methyl)-N-(isoquinolin-3-yl)benzamide], for which the pIC50 is 6.00 to 7.00. Under `Cc1ccccc1C[C@@H]1C(=O)Nc2cc(Cl)ccc2C(=O)N1Cc1ccc(C(=O)O)cc1` [Example 3l] stands 5.00 to 6.00; under `C[C@@H]1C(=O)Nc2cc(Cl)ccc2C(=O)N1Cc1ccc(C(=O)Nc2ccc(C(F)(F)F)cn2)c(Br)c1` [Example 5ar, (R)-2-bromo-4-((8-chloro-3-methyl-2,5-dioxo-2,3-dihydro-1H-benzo[e][1,4]diazepin-4(5H)-yl)methyl)-N-(5-(trifluoromethyl)pyridin-2-yl)benzamide], 5.00 to 6.00. As for `O=C(O)c1ccc(CN2C(=O)c3ccc(Cl)cc3NC(=O)[C@H]2Cc2ccccn2)cc1-c1cccc(F)c1` [Example 8k, (R)-5-((8-chloro-2,5-dioxo-3-(pyridin-2-ylmethyl)-2,3-dihydro-1H-benzo[e][1,4]diazepin-4(5H)-yl)methyl)-3′-fluoro-[1,1′-biphenyl]-2-carboxylic acid], the pIC50 was 6.00 to 7.00.

As to `C[C@@H]1C(=O)Nc2cc(Cl)ccc2C(=O)N1Cc1ccc(C(=O)O)c(Br)c1` [Example 1n], the pIC50 was 4.46 to 5.00.

As to `Cc1ccc(-c2cc(CN3C(=O)c4ccc(Cl)cc4NC(=O)[C@H]3Cc3ccccn3)ccc2C(=O)O)cc1` [Example 8g, (R)-5-((8-chloro-2,5-dioxo-3-(pyridin-2-ylmethyl)-2,3-dihydro-1H-benzo[e][1,4]diazepin-4(5H)-yl)methyl)-4′-methyl-[1,1′-biphenyl]-2-carboxylic acid], the pIC50 is 6.00 to 7.00. For the compound `COCC(=O)Nc1ccc(CN2C(=O)c3ccc(Cl)cc3NC(=O)[C@H]2Cc2ccccn2)cc1` [Example 30b], the pIC50 was 4.46 to 5.00. Under `C[C@@H]1C(=O)Nc2cc(Cl)ccc2C(=O)N1Cc1ccc(C(=O)O)cc1` [Example 3g] stands 4.46 to 5.00. Under `O=C(Nc1ccccn1)c1ccc(CN2C(=O)c3ccc(Cl)cc3NC(=O)[C@H]2Cc2ccncc2)cc1` [Example 4u, (R)-4-((8-chloro-2,5-dioxo-3-(pyridin-4-ylmethyl)-2,3-dihydro-1H-benzo[e][1,4]diazepin-4(5H)-yl)methyl)-N-(pyridin-2-yl)benzamide] stands 6.00 to 7.00; under `Cc1cnc(NC(=O)c2ccc(S(=O)(=O)N3Cc4ccc(Cl)cc4NC(=O)[C@H]3Cc3ccccn3)cc2)nc1` [Example 19g, (R)-4-((8-chloro-2-oxo-3-(pyridin-2-ylmethyl)-2,3-dihydro-1H-benzo[e][1,4]diazepin-4(5H)-yl)sulfonyl)-N-(5-methylpyrimidin-2-yl)benzamide], over 7.00; under `Cc1ccc(Nc2nn(C)c3cc(CN4C(=O)c5ccc(Cl)cc5NC(=O)[C@H]4Cc4ccccn4)ccc23)nc1` [Example 44a, (R)-8-Chloro-4-((1-methyl-3-((5-methylpyridin-2-yl)amino)-1H-indazol-6-yl)methyl)-3-(pyridin-2-ylmethyl)-3,4-dihydro-1H-benzo[e][1,4]diazepine-2,5-dione], 6.00 to 7.00.

Regarding `COCCC(=O)Nc1cc(CN2C(=O)c3ccc(Cl)cc3NC(=O)[C@H]2Cc2ccccn2)ccc1C(=O)O` [Example 22e], the pIC50 is 5.00 to 6.00. Under `COc1cnc(NC(=O)[C@H]2CC[C@H](CN3C(=O)c4ccc(Cl)cc4NC(=O)[C@H]3Cc3ccccn3)CC2)nc1` [Example 5ax, (1R,4r)-4-(((R)-8-chloro-2,5-dioxo-3-(pyridin-2-ylmethyl)-2,3-dihydro-1H-benzo[e][1,4]diazepin-4(5H)-yl)methyl)-N-(5-methoxypyrimidin-2-yl)cyclohexanecarboxamide] stands over 7.00; under `O=C1Nc2cc(Cl)ccc2C(=O)N(Cc2ccc(-n3cnc4cccnc4c3=O)cc2)[C@@H]1Cc1ccccn1` [Example 46a, (R)-8-Chloro-4-(4-(4-oxopyrido[3,2-c]pyrimidin-3(4H)-yl)benzyl)-3-(pyridin-2-ylmethyl)-3,4-dihydro-1H-benzo[e][1,4]diazepine-2,5-dione], over 7.00; under `C[C@@H]1C(=O)Nc2cc(Cl)ccc2C(=O)N1Cc1ccc(C(=O)Nc2nc3ccccc3[nH]2)cc1` [Example 5p, (R)-N-(1H-benzo[d]imidazol-2-yl)-4-((8-chloro-3-methyl-2,5-dioxo-2,3-dihydro-1H-benzo[e][1,4]diazepin-4(5H)-yl)methyl)benzamide], 5.00 to 6.00. To `O=C(Nc1ccccn1)c1ccc(CN2C(=O)c3ccc(Cl)cc3NC(=O)C2Cc2cnccn2)cc1` (centres unmarked) [Example 4bu, 4-((8-chloro-2,5-dioxo-3-(pyrazin-2-ylmethyl)-2,3-dihydro-1H-benzo[e][1,4]diazepin-4(5H)-yl)methyl)-N-(pyridin-2-yl)benzamide] belongs over 7.00; to `O=C(Nc1ccc(C(F)(F)F)cn1)c1ccc(CN2C(=O)c3ccc(Cl)cc3NC(=O)[C@H]2Cc2ccccn2)cc1-c1ccc2c(c1)OCO2` [Example 5f, (R)-2-(benzo[d][1,3]dioxol-5-yl)-4-((8-chloro-2,5-dioxo-3-(pyridin-2-ylmethyl)-2,3-dihydro-1H-benzo[e][1,4]diazepin-4(5H)-yl)methyl)-N-(5-(trifluoromethyl)pyridin-2-yl)benzamide], 6.00 to 7.00.
